Reference: the supplement of paper PMC11061612

Columns and labels:
Assay in all cases: combination Emax (second highest fraction inhibited in the dose matrix, 72 h); higher = more inhibition; extreme values may be limits of the assay
[1] = test system: HSC-3 (Oral Cavity Carcinoma)
In short: (§1)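 Bliss excess equals the observed combination effect minus the expected value EA + EB − EA·EB, where EA and EB are the effects of each agent alone. Combination Emax is the second-highest inhibition within the matrix. Inhibition was scaled from CellTiter-Glo 2.0 luminescence, with 0 set by vehicle wells and 1 by blank wells, after 72 hours of two-drug dosing of cells plated in 1536-well plates.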

[2] = test system: AsPC-1 (Pancreatic Carcinoma)
In short: as §1

[3] = test system: RT4 (Bladder Carcinoma)
In short: as §1

[4] = test system: Calu-6 (Non-Small Cell Lung Carcinoma)
In short: as §1

[5] = test system: HTC-C3 (Thyroid Gland Carcinoma)
In short: as §1

[6] = test system: RPMI-8866 (Chronic Myelogenous Leukemia)
In short: as §1

[7] = test system: 786-0 (Kidney Carcinoma)
In short: as §1

[8] = test system: OCI-AML5 (Acute Myeloid Leukemia)
In short: as §1

[9] = test system: JHH-1 (Hepatocellular Carcinoma)
In short: as §1

[10] = test system: ES-2 (Ovarian Carcinoma)
In short: as §1

[11] = test system: SJRH30 (Rhabdomyosarcoma)
In short: as §1

[12] = test system: NCI-H1755 (Lung Adenocarcinoma)
In short: as §1

[13] = test system: NCI-H810 (Non-Small Cell Lung Carcinoma)
In short: as §1

[14] = test system: FLO-1 (Esophageal Adenocarcinoma)
In short: as §1

[15] = test system: LOUCY (T-Lymphoblastic Leukemia)
In short: as §1

[16] = test system: OV-90 (Ovarian Carcinoma)
In short: as §1

[17] = test system: LAMA-84 (Chronic Myelogenous Leukemia)
In short: as §1

[18] = test system: SK-MM-2 (Plasma Cell Myeloma)
In short: as §1

[19] = test system: SW684 (Other Solid Carcinomas)
In short: as §1

| SMILES | combination Emax [1] | combination Emax [2] | combination Emax [3] | combination Emax [4] | combination Emax [5] | combination Emax [6] | combination Emax [7] | combination Emax [8] | combination Emax [9] | combination Emax [10] | combination Emax [11] | combination Emax [12] | combination Emax [13] | combination Emax [14] | combination Emax [15] | combination Emax [16] | combination Emax [17] | combination Emax [18] | combination Emax [19] |
| --- | --- | --- | --- | --- | --- | --- | --- | --- | --- | --- | --- | --- | --- | --- | --- | --- | --- | --- | --- |
| C[C@@H](c1ccc2nccn2c1)n1nnc2ncc(-c3cnn(C)c3)nc21 [Savolitinib] + CN(CC[C@H](CSC1=CC=CC=C1)NC2=C(C=C(C=C2)S(=O)(=O)NC(=O)C3=CC=C(C=C3)N4CCC(CC4)[C@H](C5=CC=CC=C5C6=CC=C(C=C6)Cl)O)S(=O)(=O)C(F)(F)F)CCO [AZD4320] (first compound max 1 µM, 7x7, partner max 1 µM) | 0.185 | 0.572 | 0.376 | 0.414 | 0.282 | 0.366 | 0.149 | 1 | 0.356 | 0.236 | 0.265 |  |  |  |  |  |  |  |  |
| Cn1cnc2c(F)c(Nc3ccc(Br)cc3Cl)c(C(=O)NOCCO)cc21 [Selumetinib] + CC(C)n1c(=O)n(C)c2cnc3cc(F)c(-c4ccc(OCCCN5CCCCC5)nc4)cc3c21 [AZD1390] (first compound max 10 µM, 7x7, partner max 0.3 µM) | 0.346 | 0.357 | 0.257 | 0.672 | 0.591 | 0.193 | 0.159 | 0.9 | 0.252 | 0.377 | 0.0759 | 0.235 | 0.304 | 0.424 | 0.35 | 0.598 | 0.926 | 0.174 | 0.152 |
| COc1nnc2ccc(N3CCC(c4ccc(OCCN5CCN(C)C(=O)[C@H]5C)cc4)CC3)nn12 [AZD5153] + Cc1c2c(nn1C)CSCc1cc(n(C)n1)CSc1cc(c3ccccc3c1)OCCCc1c(C(=O)O)n(C)c3c-2c(Cl)ccc13 [AZD5991] (first compound max 1 µM, 7x7, partner max 1 µM) | 0.778 | 0.258 | 0.911 | 0.24 | 0.745 | 0.857 | 0.557 | 0.997 | 0.906 | 0.654 | 0.97 | 0.446 | 0.995 | 0.717 | 0.997 | 0.365 | 0.928 | 0.93 | 0.46 |
| CN(C)CCCOc1ccc(-c2ccc3ncc4c(c3c2)n(C2CCOCC2)c(=O)n4C)cn1 [AZD0156] + O=C(c1cc(Cc2n[nH]c(=O)c3ccccc23)ccc1F)N1CCN(C(=O)C2CC2)CC1 [Olaparib] (first compound max 3 µM, partner max 3 µM) | 0.467 | 0.297 | 0.174 | 0.36 | 0.142 | 0.285 | 0.223 | 0.139 | 0.196 | 0.448 | 0.48 | 0.414 | 0.306 | 0.289 | 0.368 | 0.257 | 0.472 | 0.348 | 0.141 |
| CC(=O)c1c(C)c2cnc(Nc3ccc(N4CCNCC4)cn3)nc2n(C2CCCC2)c1=O [Palbociclib] + Cn1cnc2c(F)c(Nc3ccc(Br)cc3Cl)c(C(=O)NOCCO)cc21 [Selumetinib] (first compound max 10 µM, 7x7, partner max 10 µM) | 0.521 | 0.386 | 0.45 | 0.707 | 0.728 | 0.806 | 0.357 | 0.833 | 0.201 | 0.569 | 0.143 | 0.543 | 0.0848 | 0.531 | 0.278 | 0.636 | 0.945 | 0.138 | 0.292 |
| COc1nnc2ccc(N3CCC(c4ccc(OCCN5CCN(C)C(=O)[C@H]5C)cc4)CC3)nn12 [AZD5153] + CN(CC[C@H](CSC1=CC=CC=C1)NC2=C(C=C(C=C2)S(=O)(=O)NC(=O)C3=CC=C(C=C3)N4CCC(CC4)[C@H](C5=CC=CC=C5C6=CC=C(C=C6)Cl)O)S(=O)(=O)C(F)(F)F)CCO [AZD4320] (first compound max 1 µM, 7x7, partner max 1 µM) | 0.712 | 0.559 | 0.545 | 0.574 | 0.968 | 0.87 | 0.557 | 1 | 0.777 | 0.745 | 0.706 |  |  |  |  |  |  |  |  |
| CC(=O)c1c(C)c2cnc(Nc3ccc(N4CCNCC4)cn3)nc2n(C2CCCC2)c1=O [Palbociclib] + CN(CC[C@H](CSC1=CC=CC=C1)NC2=C(C=C(C=C2)S(=O)(=O)NC(=O)C3=CC=C(C=C3)N4CCC(CC4)[C@H](C5=CC=CC=C5C6=CC=C(C=C6)Cl)O)S(=O)(=O)C(F)(F)F)CCO [AZD4320] (first compound max 10 µM, 7x7, partner max 1 µM) | 0.613 | 0.488 | 0.383 | 0.623 | 0.515 | 0.927 | 0.534 | 1 | 0.519 | 0.621 | 0.37 |  |  |  |  |  |  |  |  |
